Assay [1] has as its system His-EGF(A)-Fc. In words: His-EGF(A)-Fc TR-FRET counterscreen.
Experimental: The former was based on a TF-FRET assay to measure the association of the EGF(A) domain of the LDLR to PCSK9 (“PCSK9/EGF(A) binding assay”) whilst the latter was based on a TR-FRET assay to measure binding of Ab20 to PCSK9Δhelix (“PCSK9Δhelix/Ab20 binding assay”).
The ability of compounds to inhibit binding to PCSK9 was evaluated with a panel of time-resolved fluorescence resonance energy transfer (TR-FRET) binding assays. […] The PCSK9Δhelix/Ab20 binding assay evaluated the ability of compounds to compete with Ab20 for binding to the N-terminal groove region in a His-tagged, PCSK9Δhelix construct. […] Signal generation in the PCSK9 binding assays was dependent upon the binding interaction to bring into close proximity the His-tag on the PCSK9 and the Fc-tag on the ligand. Anti-His-APC was bound to the His-tag, and anti-Fc-europium was bound to the Fc-tag. When these two antibodies were in close proximity and were irradiated with light at 340 nm, the europium was excited and emitted energy at 615 nm. This energy was taken up by the APC and was emitted as light at 665 nm. Compounds that competed with the ligand reduced the energy transfer and thus the emission at 665 nm. In the His-EGFA-Fc molecule in the counterscreen, the two tags were always in close proximity, thus any reduction in emission at 665 nm was due to interference with the detection system.
Compounds were solubilized and dilutions were prepared in DMSO. […] The plate was centrifuged to mix the well contents and allowed to incubate for 30 min. […] The TR-FRET signal was read on a ViewLux reader (PerkinElmer) with excitation at 340 nm and emission at 615 and 665 nm with a 50-μs time delay between excitation and measurement of emission. The TR-FRET ratio was calculated as the fluorescence emission at 665 nm divided by the fluorescence emission at 615 nm. The normalized TR-FRET ratios were plotted as a function of the compound concentrations, and the IC50 values were determined using a 4-parameter logistic regression.
In black 1536-well assay plates (MaKO, Aurora® Microplates, Whitefish, Mont.), 40 nL of peptide in DMSO were preincubated with 2 μL His-tagged PCSK9 plus anti-His-allophycocyanin in assay buffer (50 mM Tris-HCl, pH 7.5, 150 mM NaCl, 2 mM CaCl2, 0.01% Tween®-20, 0.1% bovine gamma globulins, and protease inhibitor cocktail) for 30 min. Then 2 μL of Fc-tagged ligand and anti-Fc-europium in assay buffer were added and allowed to incubate for 2 h.
Assay [2] addresses T1, PCSK9Δhelix (Homo sapiens, UniProt Q8NBP7).
T1 construct: Human PCSK9 construct M1-Q692 with an engineered TEV site (residue deletion Y166, R167); made in house; host or cells: CHO
In words: PCSK9Δhelix/Ab20 TR-FRET binding assay. On the technique in general: Time-resolved FRET reads energy transfer from a long-lived donor to a nearby acceptor.

Assay [3] deals with PCSK9 (Homo sapiens, UniProt Q8NBP7). In words: PCSK9/EGF(A) TR-FRET binding assay. To be noted: TR-FRET; Table 8E, additional compounds; read-out: PCSK9/EGF(A) IC50.
Setting [4] is: TR-FRET, Example 7, read-out: PCSK9Δhelix/Ab20 IC50.
Where [5] appears, read: TR-FRET counterscreen, Table 8D, * = some inhibition at highest concentrations, not sufficient to fit an IC50.
The mark [6] stands for this setting: TR-FRET counterscreen, Table 8E, additional compounds.
Where [7] appears, read: TR-FRET, Table 8E, additional compounds, read-out: PCSK9Δhelix/Ab20 IC50.

Where two headings read alike, the source gives them in different places. Numbered stars: 1 amine (or outer) side, 2 acyl side, 3 side chain; on linkers, the order of the positions; unused ones are H or OH. Bridge positions count the residues as written; N and C are the ends. Square brackets hold non-standard residues; d marks the D form. Peptide text beside a SMILES is read from it. * marks the point of attachment. Butyryl(4-indol-3-yl) = O=C(CCCc1c[nH]c2ccccc12)*; Trp(6-Br) = N[C@@H](Cc1c[nH]c2cc(Br)ccc12)C(=O)O; Desaminotyrosyl = O=C(CCc1ccc(O)cc1)*; Fmoc = O=C(OCC1c2ccccc2-c2ccccc21)*; X9 = O=C([C@@H]1C(O)CCN1[*:1])[*:2]; hArg = N=C(N)NCCCC[C@H](N)C(=O)O; X34 = NC(=O)N1CCN(CCC(=O)*)CC1; Aun = NCCCCCCCCCCC(=O)O; Pentanoyl = CCCCC(=O)* A value given as a limit tells only on which side of the number the result lay.

The record followed here is patent US11034725B2, “Compositions and methods for treating cardiovascular disease” (Genentech, Inc., priority 2016, dated 2021).

Sequence of PCSK9 (Q8NBP7 153-692): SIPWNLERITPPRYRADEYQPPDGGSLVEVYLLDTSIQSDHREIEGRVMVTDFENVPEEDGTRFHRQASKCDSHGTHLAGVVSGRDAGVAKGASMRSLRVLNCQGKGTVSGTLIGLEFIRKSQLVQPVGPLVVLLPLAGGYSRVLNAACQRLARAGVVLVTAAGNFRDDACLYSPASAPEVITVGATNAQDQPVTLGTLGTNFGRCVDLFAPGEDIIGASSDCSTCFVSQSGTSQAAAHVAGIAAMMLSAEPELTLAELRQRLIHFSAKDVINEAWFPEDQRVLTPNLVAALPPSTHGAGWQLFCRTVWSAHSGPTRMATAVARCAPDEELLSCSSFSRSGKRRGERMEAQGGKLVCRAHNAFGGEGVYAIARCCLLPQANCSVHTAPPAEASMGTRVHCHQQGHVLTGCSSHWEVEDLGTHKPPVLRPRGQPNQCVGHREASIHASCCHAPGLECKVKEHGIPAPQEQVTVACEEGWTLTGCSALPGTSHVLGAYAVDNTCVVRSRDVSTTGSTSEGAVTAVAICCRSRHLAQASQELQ
Sequence of PCSK9 (Q8NBP7 31-152 partner limits assumed): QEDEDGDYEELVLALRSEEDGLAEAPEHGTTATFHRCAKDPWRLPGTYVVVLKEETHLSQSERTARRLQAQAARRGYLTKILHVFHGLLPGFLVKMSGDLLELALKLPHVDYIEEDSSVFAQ
T1 sequence (Q8NBP7 with tags, fused parts or gaps limits assumed): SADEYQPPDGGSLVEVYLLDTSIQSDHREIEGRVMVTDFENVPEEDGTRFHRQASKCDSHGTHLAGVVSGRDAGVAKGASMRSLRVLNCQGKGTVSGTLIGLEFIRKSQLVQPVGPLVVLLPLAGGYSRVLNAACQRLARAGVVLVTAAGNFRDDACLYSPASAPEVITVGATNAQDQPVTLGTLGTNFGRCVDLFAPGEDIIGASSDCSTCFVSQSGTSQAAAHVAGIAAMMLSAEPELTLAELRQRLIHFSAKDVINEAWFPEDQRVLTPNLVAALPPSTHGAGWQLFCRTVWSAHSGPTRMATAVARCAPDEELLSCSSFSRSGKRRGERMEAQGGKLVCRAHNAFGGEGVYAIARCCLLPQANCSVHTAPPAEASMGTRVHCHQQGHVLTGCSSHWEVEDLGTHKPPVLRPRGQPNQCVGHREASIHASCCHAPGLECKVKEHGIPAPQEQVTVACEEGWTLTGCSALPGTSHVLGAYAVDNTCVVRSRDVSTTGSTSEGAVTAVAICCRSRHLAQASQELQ
T1 sequence (Q8NBP7 31-152 partner limits assumed): as the sequence (Q8NBP7 31-152 partner limits assumed) above

Consider `CC[C@H](C)[C@H](NC(=O)[C@H](CCCNC(=N)N)NC(=O)[C@H](CCCCN)NC(=O)[C@H](CC(C)C)NC(=O)[C@H](CC(N)=O)NC(=O)[C@H](Cc1c[nH]c2ccccc12)NC(=O)[C@H](C)NC(=O)CCCCCNC(=O)[C@@H](NC(=O)[C@H](Cc1c[nH]c2ccccc12)NC(=O)[C@H](CC(=O)O)NC(=O)[C@H](CC(C)C)NC(=O)[C@H](Cc1ccc(O)cc1)NC(=O)[C@H](CCC(=O)O)NC(=O)[C@H](CCC(=O)O)NC(=O)[C@H](Cc1c[nH]c2ccccc12)NC(=O)[C@H](CO)NC(=O)[C@@H](NC(=O)[C@H](Cc1ccccc1)NC(=O)[C@@H](NC(=O)[C@@H](NC(C)=O)[C@@H](C)O)C(C)C)[C@@H](C)O)C(C)C)C(=O)NCC(=O)N[C@@H](CO)C(N)=O` [Compound 91], for which the IC50 in assay [1] (counterscreen, Example 7) is over 50 µM; in assay [2] (setting [4]) it was 0.01 µM.

For the compound `CC[C@H](C)[C@@H]1NC(=O)[C@H](CCCNC(=N)N)NC(=O)[C@H](CCC(N)=O)NC(=O)[C@H](CC(C)C)NC(=O)[C@H](CC(N)=O)NC(=O)[C@H](Cc2c[nH]c3ccccc23)NC(=O)[C@@H]2C(O)CCN2C(=O)[C@H](CC(C)C)NC(=O)[C@H](CCCNC(=N)N)NC(=O)[C@@H](NC(=O)CNC(=O)[C@H](CO)NC(C)=O)CSSC[C@@H](C(N)=O)NC(=O)[C@@H]2CCCN2C(=O)[C@H](CC(C)C)NC(=O)CNC1=O` (some centres unmarked) [Compound 37] (Ac-SGCRL[X9]WNLQRIGLPC-NH2; disulfide 3-16), the IC50 in assay [1] (setting [5]) was over 50 µM. Turning to `CCCCC(=O)N[C@@H](Cc1c[nH]c2cc(Br)ccc12)C(=O)N[C@@H](CC(N)=O)C(=O)N[C@@H](CC(C)C)C(=O)N[C@H](C(=O)N[C@@H](CCCNC(=N)N)C(=O)N[C@H](C(=O)NCC(=O)N[C@@H](CC(C)C)C(=O)N[C@H](C(=O)N[C@@H](CCCNC(=N)N)C(N)=O)[C@@H](C)O)[C@@H](C)CC)C(C)C` [Compound 187] (Pentanoyl-[Trp(6-Br)]NLVRIGLTR-NH2), the IC50 in assay [1] (setting [6]) turned out to be 38 µM. “Ac-TVFTSWEEYLDWVGSGKLWNLGR-NH2 [Compound 4]”: the IC50 was over 50 µM in assay [1] (counterscreen, Example 7) and 1.52 µM in assay [2] (setting [4]). Consider `CC[C@H](C)[C@@H]1NC(=O)[C@H](CCCNC(=N)N)NC(=O)[C@H](CCC(N)=O)NC(=O)[C@H](CC(C)C)NC(=O)[C@H](CC(N)=O)NC(=O)[C@H](Cc2c[nH]c3ccccc23)NC(=O)[C@@H]2CCCN2C(=O)[C@H](CC(C)C)NC(=O)[C@H](Cc2ccccc2)NC(=O)[C@@H](NC(=O)CNC(=O)CNC(=O)[C@H](CO)NC(=O)CNC(=O)[C@@H](NC(=O)[C@H](Cc2c[nH]c3ccccc23)NC(=O)[C@H](CC(=O)O)NC(=O)[C@H](CC(C)C)NC(=O)[C@H](Cc2ccc(O)cc2)NC(=O)[C@H](CCC(=O)O)NC(=O)[C@H](CCC(=O)O)NC(=O)[C@H](Cc2c[nH]c3ccccc23)NC(=O)[C@H](CO)NC(=O)[C@@H](NC(=O)[C@H](Cc2ccccc2)NC(=O)[C@@H](NC(=O)[C@@H](NC(C)=O)[C@@H](C)O)C(C)C)[C@@H](C)O)C(C)C)CSSC[C@@H](C(N)=O)NC(=O)[C@H](CC(C)C)NC(=O)[C@H](CC(C)C)NC(=O)CNC1=O` [Compound 38] (Ac-TVFTSWEEYLDWVGSGGCFLPWNLQRIGLLC-NH2; disulfide 18-31), for which the IC50 in assay [1] (counterscreen, Example 7) is over 50 µM; in assay [2] (setting [4]), 0.003 µM. For the same compound, the “inhibition in the PCSK9Δhelix/Ab20 binding assay” value in assay [2] is “potent inhibitors”. Turning to `CC(=O)N[C@H](C(=O)N[C@H](C(=O)N[C@@H](Cc1ccccc1)C(=O)N[C@H](C(=O)N[C@@H](CO)C(=O)N[C@@H](Cc1c[nH]c2ccccc12)C(=O)N[C@@H](CCC(=O)O)C(=O)N[C@@H](CCC(=O)O)C(=O)N[C@@H](Cc1ccc(O)cc1)C(=O)N[C@@H](CC(C)C)C(=O)N[C@@H](CC(=O)O)C(=O)N[C@@H](Cc1c[nH]c2ccccc12)C(=O)N[C@H](C(=O)NCCCCCC(=O)N[C@@H](CCCCN)C(=O)N[C@@H](CC(C)C)C(=O)N[C@@H](Cc1c[nH]c2ccccc12)C(=O)N[C@@H](CC(N)=O)C(=O)N[C@@H](CC(C)C)C(=O)NCC(=O)N[C@@H](CCCNC(=N)N)C(=O)N[C@H](C(N)=O)C(C)C)C(C)C)[C@@H](C)O)C(C)C)[C@@H](C)O` [Compound 18], the IC50 in assay [1] (counterscreen, Example 7) was over 50 µM; in assay [2] (setting [4]), 0.04 µM. `CC(=O)N[C@H]1CSSC[C@@H](C(N)=O)NC(=O)CCCCCCCCCCNC(=O)[C@H](CCCNC(=N)N)NC(=O)[C@H](CCC(N)=O)NC(=O)[C@H](CC(C)C)NC(=O)[C@H](CC(N)=O)NC(=O)[C@H](Cc2c[nH]c3ccccc23)NC(=O)[C@@H]2CCCN2C(=O)[C@H](CC(C)C)NC(=O)[C@H](CCCNC(=N)N)NC1=O` [Compound 83] (Ac-CRLPWNLQR[Aun]C-NH2; disulfide 1-11 (inferred)) gave an IC50 in assay [1] (setting [5]) of over 50 µM. Also, the “inhibition in the PCSK9Δhelix/Ab20 binding assay” value in assay [2] is reported as “removes inhibition”.

In assay [1] (setting [6]), `CC[C@H](C)[C@@H]1NC(=O)[C@H](CCCNC(=N)N)NC(=O)[C@H](CCC(N)=O)NC(=O)[C@H](CC(C)C)NC(=O)[C@H](CC(N)=O)NC(=O)[C@H](Cc2c[nH]c3ccccc23)NC(=O)[C@@H]2C(O)CCN2C(=O)[C@H]([C@@H](C)CC)NC(=O)[C@H](Cc2ccccc2)NC(=O)[C@@H](NC(=O)CNC(=O)[C@H](CO)NC(C)=O)CSSC[C@@H](C(N)=O)NC(=O)[C@H](CC(C)C)NC(=O)[C@H](CC(C)C)NC(=O)CNC1=O` (some centres unmarked) [Compound 242] (Ac-SGCFI[X9]WNLQRIGLLC-NH2; disulfide 3-16) displayed an IC50 of at least 50 µM.

As for `CC[C@H](C)[C@@H]1NC(=O)[C@H](CCCNC(=N)N)NC(=O)[C@H](CCCCN)NC(=O)[C@H](CC(C)C)NC(=O)[C@H](CC(N)=O)NC(=O)[C@H](Cc2c[nH]c3ccccc23)NC(=O)[C@@H](NC(=O)CNC(=O)[C@H](CO)NC(=O)CNC(=O)OCC2c3ccccc3-c3ccccc32)CSSC[C@@H](C(N)=O)NC(=O)CNC(=O)[C@H](CCC(N)=O)NC(=O)[C@H](CO)NC(=O)CNC1=O` [Compound 98] (Fmoc-GSGCWNLKRIGSQGC-NH2; disulfide 4-15), the IC50 in assay [1] (setting [5]) is over 50 µM; in assay [2] (PCSK9Δhelix/Ab20 IC50, TR-FRET, Example 7), 3.6 µM. As to `CC(=O)N[C@H](C(=O)N[C@H](C(=O)N[C@@H](Cc1ccccc1)C(=O)N[C@H](C(=O)N[C@@H](CO)C(=O)N[C@@H](Cc1c[nH]c2ccccc12)C(=O)N[C@@H](CCC(=O)O)C(=O)N[C@@H](CCC(=O)O)C(=O)N[C@@H](Cc1ccc(O)cc1)C(=O)N[C@@H](CC(C)C)C(=O)N[C@@H](CC(=O)O)C(=O)N[C@@H](Cc1c[nH]c2ccccc12)C(=O)N[C@H](C(=O)NCC(=O)N[C@@H](CO)C(=O)NCC(=O)N[C@H]1CSSC[C@@H](C(N)=O)NC(=O)CNC(=O)[C@H](CCC(N)=O)NC(=O)[C@H](CO)NC(=O)CNC(=O)[C@H](C(C)C)NC(=O)[C@H](CCCNC(=N)N)NC(=O)[C@H](CCCCN)NC(=O)[C@H](CC(C)C)NC(=O)[C@H](CC(N)=O)NC(=O)[C@H](Cc2c[nH]c3ccccc23)NC1=O)C(C)C)[C@@H](C)O)C(C)C)[C@@H](C)O` [Compound 12] (Ac-TVFTSWEEYLDWVGSGCWNLKRVGSQGC-NH2; disulfide 17-28), the IC50 in assay [1] (counterscreen, Example 7) is over 50 µM. With “Ac-TVFTSWEEYLDWVGSGKLWNLG-NH2 [Compound 5]”, the IC50 in assay [1] (counterscreen, Example 7) was over 50 µM; in assay [2] (setting [4]), 11.1 µM.

As to `CC[C@H](C)[C@@H]1NC(=O)[C@H](CCCNC(=N)N)NC(=O)[C@H](CCCCN)NC(=O)[C@H](CC(C)C)NC(=O)[C@H](CC(N)=O)NC(=O)[C@H](Cc2c[nH]c3ccccc23)NC(=O)[C@@H](NC(=O)CNC(=O)[C@H](CO)NC(=O)CNC(C)=O)CSSC[C@@H](C(=O)N[C@@H](Cc2c[nH]c3ccccc23)C(N)=O)NC(=O)CNC(=O)[C@H](CCC(N)=O)NC(=O)[C@H](CO)NC(=O)CNC1=O` [Compound 40] (Ac-GSGCWNLKRIGSQGCW-NH2; disulfide 4-15), the IC50 in assay [1] (setting [5]) is over 50 µM; in assay [2] (PCSK9Δhelix/Ab20 IC50, TR-FRET, Table 8D, disulfide-cyclized extension peptides), 2.41 µM. On to `CC[C@H](C)[C@H](NC(=O)[C@H](CCCNC(=N)N)NC(=O)[C@H](CCCCN)NC(=O)[C@H](CC(C)C)NC(=O)[C@H](CC(N)=O)NC(=O)[C@H](Cc1c[nH]c2ccccc12)NC(=O)[C@H](C)NC(=O)CCCCCNC(=O)[C@@H](NC(=O)[C@H](Cc1c[nH]c2ccccc12)NC(=O)[C@H](CC(=O)O)NC(=O)[C@H](CC(C)C)NC(=O)[C@H](Cc1ccc(O)cc1)NC(=O)[C@H](CCC(=O)O)NC(=O)[C@H](CCC(=O)O)NC(=O)[C@H](Cc1c[nH]c2ccccc12)NC(=O)[C@H](CO)NC(=O)[C@@H](NC(=O)[C@H](Cc1ccccc1)NC(=O)[C@@H](NC(=O)[C@@H](NC(C)=O)[C@@H](C)O)C(C)C)[C@@H](C)O)C(C)C)C(N)=O` [Compound 93], for which the IC50 is over 50 µM in assay [1] (counterscreen, Example 7) and 0.016 µM in assay [2] (setting [4]). With `CC[C@H](C)[C@H](NC(=O)[C@H](CCCCNC(=N)N)NC(=O)[C@@H](NC(=O)[C@H](CC(C)C)NC(=O)[C@H](CC(N)=O)NC(=O)[C@H](Cc1c[nH]c2ccccc12)NC(=O)CCc1ccc(O)cc1)C(C)C)C(=O)NCC(=O)N[C@@H](CC(C)C)C(=O)N[C@@H](CC(C)C)C(=O)N[C@@H](CCCNC(=N)N)C(N)=O` [Compound 214] (Desaminotyrosyl-WNLV[hArg]IGLLR-NH2), the IC50 came to 3 µM in assay [3] and 0.21 µM in assay [2] (setting [7]). Taken in the same sequence, the figures for `CC[C@H](C)[C@H](NC(=O)[C@H](CCCNC(=N)N)NC(=O)[C@@H](NC(=O)[C@H](CC(C)C)NC(=O)[C@H](CC(N)=O)NC(=O)[C@H](Cc1c[nH]c2ccccc12)NC(=O)CCN1CCN(C(N)=O)CC1)C(C)C)C(=O)NCC(=O)N[C@@H](CC(C)C)C(=O)N[C@@H](CC(C)C)C(=O)N[C@@H](CCCNC(=N)N)C(N)=O` [Compound 131] (X34-WNLVRIGLLR-NH2) were at least 50 µM and 6.7 µM. Taken in the same sequence, the figures for `CC[C@H](C)[C@H](NC(=O)[C@H](CCCNC(=N)N)NC(=O)[C@@H](NC(=O)[C@H](CC(C)C)NC(=O)[C@H](CC(N)=O)NC(=O)[C@H](Cc1c[nH]c2ccccc12)NC(=O)CCCc1c[nH]c2ccccc12)C(C)C)C(=O)NCC(=O)N[C@@H](CC(C)C)C(=O)N[C@H](C(=O)N[C@@H](CCCNC(=N)N)C(N)=O)[C@@H](C)O` [Compound 190] ({Butyryl(4-indol-3-yl)}-WNLVRIGLTR-NH2) were 30 µM and 7 µM.
